The supplement of paper PMC8882468

Tests used:
[1] = test system: HCI-025 (organoid from a breast cancer xenograft); assay: CTG-3D luminescence at 96 h relative to day-0 seeding control (ratio to day 0); higher = more growth / less cytotoxicity
Protocol: (§1)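 PDX-derived breast cancer organoids (PDxO) in 384-well Matrigel plates, 8-point dose (0.000000625-100 uM), 96 h at 37 C; CellTiter-Glo 3D luminescence normalised to the day-0 seeding control (mean of 4 technical replicates over mean of 4 day-0 wells).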

[2] = test system: HCI-027 (organoid from a triple-negative breast cancer xenograft); assay: as above
Protocol: as §1

## O=c1[nH]cc(F)c(=O)[nH]1 [5-fluorouracil]
[1]; 12.5 pM, days in culture: 172
  CTG-3D luminescence at 96 h: 2.59
[1]; 12.5 pM, days in culture: 209
  CTG-3D luminescence at 96 h: 2.04
[1]; 12.5 pM, days in culture: 218
  CTG-3D luminescence at 96 h: 1.7
[1]; 0.00025 µM, days in culture: 172
  CTG-3D luminescence at 96 h: 1.93
[1]; 0.00025 µM, days in culture: 209
  CTG-3D luminescence at 96 h: 2.56
[1]; 0.00025 µM, days in culture: 218
  CTG-3D luminescence at 96 h: 1.9
[1]; 0.005 µM, days in culture: 172
  CTG-3D luminescence at 96 h: 3.91
[1]; 0.005 µM, days in culture: 209
  CTG-3D luminescence at 96 h: 1.99
[1]; 0.005 µM, days in culture: 218
  CTG-3D luminescence at 96 h: 1.92
[1]; 0.1 µM, days in culture: 172
  CTG-3D luminescence at 96 h: 1.56
[1]; 0.1 µM, days in culture: 209
  CTG-3D luminescence at 96 h: 1.52
[1]; 0.1 µM, days in culture: 218
  CTG-3D luminescence at 96 h: 1.65
[1]; 1 µM, days in culture: 172
  CTG-3D luminescence at 96 h: 1.55
[1]; 1 µM, days in culture: 209
  CTG-3D luminescence at 96 h: 1.7
[1]; 1 µM, days in culture: 218
  CTG-3D luminescence at 96 h: 1.37
[1]; 10 µM, days in culture: 172
  CTG-3D luminescence at 96 h: 0.982
[1]; 10 µM, days in culture: 209
  CTG-3D luminescence at 96 h: 1.25
[1]; 10 µM, days in culture: 218
  CTG-3D luminescence at 96 h: 1.61
[1]; 100 µM, days in culture: 172
  CTG-3D luminescence at 96 h: 0.597
[1]; 100 µM, days in culture: 209
  CTG-3D luminescence at 96 h: 0.569
[1]; 100 µM, days in culture: 218
  CTG-3D luminescence at 96 h: 0.855
[1]; 625 fM, days in culture: 172
  CTG-3D luminescence at 96 h: 2.53
[1]; 625 fM, days in culture: 209
  CTG-3D luminescence at 96 h: 1.37
[1]; 625 fM, days in culture: 218
  CTG-3D luminescence at 96 h: 1.86
[2]; 12.5 pM, days in culture: 176
  CTG-3D luminescence at 96 h: 2.05
[2]; 12.5 pM, days in culture: 194
  CTG-3D luminescence at 96 h: 1.69
[2]; 12.5 pM, days in culture: 201
  CTG-3D luminescence at 96 h: 1.96
[2]; 0.00025 µM, days in culture: 176
  CTG-3D luminescence at 96 h: 1.56
[2]; 0.00025 µM, days in culture: 194
  CTG-3D luminescence at 96 h: 1.22
[2]; 0.00025 µM, days in culture: 201
  CTG-3D luminescence at 96 h: 1.99
[2]; 0.005 µM, days in culture: 176
  CTG-3D luminescence at 96 h: 2.56
[2]; 0.005 µM, days in culture: 194
  CTG-3D luminescence at 96 h: 1.34
[2]; 0.005 µM, days in culture: 201
  CTG-3D luminescence at 96 h: 2.23
[2]; 0.1 µM, days in culture: 176
  CTG-3D luminescence at 96 h: 1.65
[2]; 0.1 µM, days in culture: 194
  CTG-3D luminescence at 96 h: 1.6
[2]; 0.1 µM, days in culture: 201
  CTG-3D luminescence at 96 h: 1.8
[2]; 1 µM, days in culture: 176
  CTG-3D luminescence at 96 h: 2.29
[2]; 1 µM, days in culture: 194
  CTG-3D luminescence at 96 h: 1.41
[2]; 1 µM, days in culture: 201
  CTG-3D luminescence at 96 h: 1.26
[2]; 10 µM, days in culture: 176
  CTG-3D luminescence at 96 h: 0.753
[2]; 10 µM, days in culture: 194
  CTG-3D luminescence at 96 h: 1.29
[2]; 10 µM, days in culture: 201
  CTG-3D luminescence at 96 h: 1.05
[2]; 100 µM, days in culture: 176
  CTG-3D luminescence at 96 h: 0.527
[2]; 100 µM, days in culture: 194
  CTG-3D luminescence at 96 h: 0.526
[2]; 100 µM, days in culture: 201
  CTG-3D luminescence at 96 h: 0.398
[2]; 625 fM, days in culture: 176
  CTG-3D luminescence at 96 h: 1.98
[2]; 625 fM, days in culture: 194
  CTG-3D luminescence at 96 h: 1.51
[2]; 625 fM, days in culture: 201
  CTG-3D luminescence at 96 h: 1.53
